Laboratory results from patent US20050159427A1, “N-acylsulfonamide apoptosis promoters” (priority 2003, published 2005).
Entries after “also recorded” stand apart in the source; their conditions may differ.

What was measured:
[1] = system: NCI-H460; experiment: Tumor cell viability (TABLE 1); format: cell-based; conditions: Homo sapiens, read-out: EC50 (50% reduction in cell viability); NCI-H460 (Non-Small Cell Lung); serum-free conditions, 48 hour treatment; mean ± SEM
[2] = system: NCI-H322M; experiment: Tumor cell viability (TABLE 1); format: cell-based; conditions: Homo sapiens, read-out: EC50 (50% reduction in cell viability); NCI-H322M (Non-Small Cell Lung); serum-free conditions, 48 hour treatment; mean ± SEM
[3] = system: NCI-H23; experiment: Tumor cell viability (TABLE 1); format: cell-based; conditions: Homo sapiens, read-out: EC50 (50% reduction in cell viability); NCI-H23 (Non-Small Cell Lung); serum-free conditions, 48 hour treatment; mean ± SEM
[4] = system: HCT-116; experiment: Tumor cell viability (TABLE 1); format: cell-based; conditions: Homo sapiens, read-out: EC50 (50% reduction in cell viability); HCT-116 (Colorectal); serum-free conditions, 48 hour treatment; mean ± SEM
[5] = system: MDA-MB-435; experiment: Tumor cell viability (TABLE 1); format: cell-based; conditions: Homo sapiens, MDA-MB-435, 48 h, read-out: EC50 (50% reduction in cell viability)
[6] = system: HS-578T; experiment: Tumor cell viability (TABLE 1); format: cell-based; conditions: Homo sapiens, read-out: EC50 (50% reduction in cell viability); HS-578T (Breast); serum-free conditions, 48 hour treatment; mean ± SEM
[7] = system: NCI/ADR-RES; experiment: Tumor cell viability (TABLE 1); format: cell-based; conditions: Homo sapiens, read-out: EC50 (50% reduction in cell viability); NCI/ADR-RES (Breast); serum-free conditions, 48 hour treatment
[8] = system: SF-539; experiment: Tumor cell viability (TABLE 1); format: cell-based; conditions: Homo sapiens, read-out: EC50 (50% reduction in cell viability); SF-539 (CNS); serum-free conditions, 48 hour treatment; mean ± SEM
[9] = system: SF-295; experiment: Tumor cell viability (TABLE 1); format: cell-based; conditions: Homo sapiens, read-out: EC50 (50% reduction in cell viability); SF-295 (CNS); serum-free conditions, 48 hour treatment; mean ± SEM
[10] = system: U87MG; experiment: Tumor cell viability (TABLE 1); format: cell-based; conditions: Homo sapiens, U-87 MG, read-out: EC50 (50% reduction in cell viability); U87MG (Glioma); serum-free conditions, 48 hour treatment; mean ± SEM
[11] = system: LOX IMVI; experiment: Tumor cell viability (TABLE 1); format: cell-based; conditions: Homo sapiens, read-out: EC50 (50% reduction in cell viability); LOX IMVI (Melanoma); serum-free conditions, 48 hour treatment; mean ± SEM
[12] = system: SK-MEL-5; experiment: Tumor cell viability (TABLE 1); format: cell-based; conditions: Homo sapiens, read-out: EC50 (50% reduction in cell viability); SK-MEL-5 (Melanoma); serum-free conditions, 48 hour treatment; mean ± SEM
[13] = system: SK-MEL-28; experiment: Tumor cell viability (TABLE 1); format: cell-based; conditions: Homo sapiens, read-out: EC50 (50% reduction in cell viability); SK-MEL-28 (Melanoma); serum-free conditions, 48 hour treatment; mean ± SEM
[14] = system: SK-OV-3; experiment: Tumor cell viability (TABLE 1); format: cell-based; conditions: Homo sapiens, read-out: EC50 (50% reduction in cell viability); SK-OV-3 (Ovarian); serum-free conditions, 48 hour treatment; mean ± SEM
[15] = system: MiaPaCa; experiment: Tumor cell viability (TABLE 1); format: cell-based; conditions: Homo sapiens, MIA PaCa-2, read-out: EC50 (50% reduction in cell viability); MiaPaCa (Pancreas); serum-free conditions, 48 hour treatment; mean ± SEM
[16] = system: DU-145; experiment: Tumor cell viability (TABLE 1); format: cell-based; conditions: Homo sapiens, read-out: EC50 (50% reduction in cell viability); DU-145 (Prostate); serum-free conditions, 48 hour treatment; mean ± SEM
[17] = system: ACHN; experiment: Tumor cell viability (TABLE 1); format: cell-based; conditions: Homo sapiens, read-out: EC50 (50% reduction in cell viability); ACHN (Renal); serum-free conditions, 48 hour treatment
[18] = system: 786-0; experiment: Tumor cell viability (TABLE 1); format: cell-based; conditions: Homo sapiens, read-out: EC50 (50% reduction in cell viability); 786-0 (Renal); serum-free conditions, 48 hour treatment; mean ± SEM
[19] = system: SCLC xenograft; experiment: Small cell lung cancer xenograft tumor model; format: in vivo, murine
Source text: (H146 and SCLC xenograft) from human-derived small cell lung cancer isolated from smokers and nonsmokers, defective for Rb/p53 gene function, and expresseive of moderately high levels of Bcl-2.

[20] = system: CCRF-CEM; experiment: CCRF-CEM systemic model of acute lymphoblastoid leukemia; format: in vivo, mouse
Source text: CCRF-CEM is a p53-mutant acute lympoblastoid leukemia line of T-cell origin used as an animal (mouse) model of systemic leukemia involving intravenous inoculation of tumor cells. If left untreated, the mice succumb to disease within about 34 days post inoculation, at which time extensive tumor infiltration of spleen, liver, and bone marrow has occured.

[21] = system: SuDHL4; experiment: SuDHL4 model of B-cell follicular lymphoma; format: in vivo
[22] = system: PC3; experiment: PC3 derived murine model of prostate cancer; format: in vivo
[23] = system: PC-3 prostate carcinoma cells; experiment: Paclitaxel combination on PC-3 cells; format: cell-based
[24] = Combination therapy studies with cytotoxic agents; conditions: with etoposide, vincristine, modified CHOP, doxorubicin, rapamycin and Rituxin®
[25] = system: acute lymphoblastoid leukemia, small cell lung cancer, prostate cancer, non-small cell lung cancer, and follicular lymphoma tumors (RS11380, DoHH2 and SuDHL-4); conditions: follicular lymphoma (RS11380, DoHH2, SuDHL-4)

CN(C)CC[C@H](CSc1ccccc1)Nc1ccc(S(=O)(=O)NC(=O)c2ccc(N3CCN(Cc4ccccc4-c4ccc(Cl)cc4)CC3)cc2)cc1[N+](=O)[O-] [EXAMPLE 2, N-(4-(4-((4′-chloro(1,1′-biphenyl)-2-yl)methyl)piperazin-1-yl)benzoyl)-4-(((1R)-3-(dimethylamino)-1-((phenylsulfanyl)methyl)propyl)amino)-3-nitrobenzenesulfonamide]
EC50 [1]: 2.3 ± 1.5 µM
EC50 [2]: 4.1 ± 0.8 µM
EC50 [3]: 7.4 ± 0.6 µM
EC50 [4]: 2.1 ± 1.8 µM
EC50 [5]: 2.4 µM
EC50 [6]: 7.2 ± 8.2 µM
EC50 [7]: > 10 µM
EC50 [8]: 4.1 ± 0.6 µM
EC50 [9]: 7.7 ± 2.3 µM
EC50 [10]: 2.7 ± 1.8 µM
EC50 [11]: 1.7 ± 0.4 µM
EC50 [12]: 3.7 ± 0.8 µM
EC50 [13]: 9.3 ± 0.1 µM
EC50 [14]: 5.6 ± 1 µM
EC50 [15]: 1.4 ± 0.6 µM
EC50 [16]: 8.2 ± 1.1 µM
EC50 [17]: 1 µM
EC50 [18]: 2.9 ± 0.1 µM
anti-tumor activity ([19]; SCLC xenograft murine model): demonstrated anti-tumor activity
anti-tumor activity compared with paclitaxel ([19]; paclitaxel near the maximum tolerated dose): equivalent to slightly better than paclitaxel
anti-tumor activity compared with cisplatin and etoposide ([19]; small cell lung cancer xenograft tumor model): superior to cisplatin and etoposide
activity in leukemia model ([20]; CCRF-CEM T-cell acute lymphoblastoid leukemia model): significant activity
survival ([20]; mice, intravenous inoculation of tumor cells): prolonged survival; also recorded: increased the average survival
tumor infiltration in liver and spleen (histopathology) ([20]; relative to controls): lower tumor infiltration
average spleen weight ([20]; relative to vehicle controls): significant decrease in average spleen weight
activity in follicular lymphoma model [21]: significant activity
inhibition of tumor growth rate ([22]; PC3 derived murine model of prostate cancer): 40-50%
therapeutic utility in prostate cancer model ([22]; mouse, in vivo): Therapeutic utility was also observed
increase in efficacy of paclitaxel when administered with the compound [23]: 4.7 fold
effect on efficacy of cytotoxic agents during combination therapy [24]: synergistically enhanced efficacy
therapeutic utility in xenograft models [25]: displayed therapeutic utility
